Data taken from patent US20070010671A1, “Novel quinazoline derivatives and methods of treatment related to the use thereof” (priority 2003, published 2007).

These molecules were tested against MCH receptor (Homo sapiens, UniProt Q99705) (assay: High throughput functional screening FLIPR/FDSS6000: inhibition of MCH-evoked intracellular Ca2+ changes). Conditions: class by percent of control at 10^-7 M or IC50.
Assay type: cell-based
Summary of the method: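 Seed cells the day before, then load them with Fluo4-AM for one hour at 37° C and wash in HEPES-buffered HBSS, pH 7.4. Add compound for 3 min, then stimulate with 50 nM MCH. Monitor the calcium transient for 290 s.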

SMILES	class
COc1ccc(C)cc1NC(=S)N[C@H]1CC[C@@H](Nc2nc(N(C)C)c3ccccc3n2)CC1 [compound 221, N-(cis-4-{[4-(dimethylamino)quinazolin-2-yl]amino}cyclohexyl)-N′-(2-methoxy-5-methylphenyl)thiourea]	1 (Class 1: The value of percent of control at 10^−7 M was less than 40% or the value of IC50 was less than 50 nM.)
CN(C)c1nc(N[C@H]2CC[C@@H](NC(=S)Nc3cccc(SC(F)(F)F)c3)CC2)nc2ccccc12 [compound 222]	3 (Class 3: The value of percent of control at 10^−7 M was more than 60% or the value of IC50 was more than 200 nM.)
CN(C)c1nc(N[C@H]2CC[C@@H](NC(=S)Nc3cc(Cl)cc(Cl)c3)CC2)nc2ccccc12 [compound 223]	3 (Class 3: The value of percent of control at 10^−7 M was more than 60% or the value of IC50 was more than 200 nM.)
CN(C)c1nc(N[C@H]2CC[C@@H](NC(=S)Nc3cc(F)cc(F)c3)CC2)nc2ccccc12 [compound 224]	3 (Class 3: The value of percent of control at 10^−7 M was more than 60% or the value of IC50 was more than 200 nM.)
CN(C)c1nc(N[C@H]2CC[C@@H](NC(=S)Nc3cccc(C#N)c3)CC2)nc2ccccc12 [compound 225]	3 (Class 3: The value of percent of control at 10^−7 M was more than 60% or the value of IC50 was more than 200 nM.)
CN(C)c1nc(N[C@H]2CC[C@@H](NC(=S)Nc3cccc(F)c3)CC2)nc2ccccc12 [compound 226]	3 (Class 3: The value of percent of control at 10^−7 M was more than 60% or the value of IC50 was more than 200 nM.)
CN(C)c1nc(N[C@H]2CC[C@@H](NC(=S)Nc3cccc(I)c3)CC2)nc2ccccc12 [compound 227]	2 (Class 2: The value of percent of control at 10^−7 M was from 40% to 60% or the value of IC50 was from 50 nM to 200 nM.)
COc1cccc(NC(=S)N[C@H]2CC[C@@H](Nc3nc(N(C)C)c4ccccc4n3)CC2)c1 [compound 228, N-(cis-4-{[4-(dimethylamino)quinazolin-2-yl]amino}cyclohexyl)-N′-(3-methoxyphenyl)thiourea]	2 (Class 2: The value of percent of control at 10^−7 M was from 40% to 60% or the value of IC50 was from 50 nM to 200 nM.)
CN(C)c1nc(N[C@H]2CC[C@@H](NC(=S)Nc3ccc(OC(F)F)cc3)CC2)nc2ccccc12 [compound 229, N-[4-(difluoromethoxy)phenyl]-N′-(cis-4-{[4-(dimethylamino)quinazolin-2-yl]amino}cyclohexyl)thiourea]	2 (Class 2: The value of percent of control at 10^−7 M was from 40% to 60% or the value of IC50 was from 50 nM to 200 nM.)
CN(C)c1nc(N[C@H]2CC[C@@H](NC(=S)Nc3ccc(OC(F)(F)F)cc3)CC2)nc2ccccc12 [compound 230]	3 (Class 3: The value of percent of control at 10^−7 M was more than 60% or the value of IC50 was more than 200 nM.)
CN(C)c1nc(N[C@H]2CC[C@@H](NC(=S)Nc3ccc(C(F)(F)F)cc3)CC2)nc2ccccc12 [compound 231, N-(cis-4-{[4-(dimethylamino)quinazolin-2-yl]amino}cyclohexyl)-N′-[4-(trifluoromethyl)phenyl]thiourea]	2 (Class 2: The value of percent of control at 10^−7 M was from 40% to 60% or the value of IC50 was from 50 nM to 200 nM.)
CN(C)c1nc(N[C@H]2CC[C@@H](NC(=S)Nc3ccc(SC(F)(F)F)cc3)CC2)nc2ccccc12 [compound 232]	3 (Class 3: The value of percent of control at 10^−7 M was more than 60% or the value of IC50 was more than 200 nM.)
CN(C)c1nc(N[C@H]2CC[C@@H](NC(=S)Nc3ccc(Br)cc3Cl)CC2)nc2ccccc12 [compound 233]	1 (Class 1: The value of percent of control at 10^−7 M was less than 40% or the value of IC50 was less than 50 nM.)
CN(C)c1nc(N[C@H]2CC[C@@H](NC(=S)Nc3ccc(Br)cc3F)CC2)nc2ccccc12 [compound 234]	3 (Class 3: The value of percent of control at 10^−7 M was more than 60% or the value of IC50 was more than 200 nM.)
